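1) Cells in 96-well plates. 2) Compound, 48 h, 5 concentrations. 3) Linear interpolation between surrounding doses. 4) Unreached endpoint = highest concentration. GI50: concentration for 50% inhibition of growth. TGI is the concentration that stops growth completely.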
What was measured:
Assay in all cases: NCI tumour cell line growth inhibition, 48 h
[1] = tested on: MOLT-4 leukemia
[2] = tested on: SW-620 colon
[3] = tested on: UACC-257 melanoma
[4] = tested on: RXF 393 renal
[5] = tested on: SK-OV-3 ovarian
[6] = tested on: MDA-MB-468 breast
[7] = tested on: SF-268 CNS
[8] = tested on: BT-549 breast
[9] = tested on: T-47D breast
[10] = tested on: SK-MEL-2 melanoma
[11] = tested on: SR leukemia
[12] = tested on: SF-295 CNS
[13] = tested on: CCRF-CEM leukemia
[14] = tested on: OVCAR-5 ovarian
[15] = tested on: IGROV1 ovarian
[16] = tested on: MDA-MB-231 breast
[17] = tested on: KM12 colon
[18] = tested on: UO-31 renal
[19] = tested on: M14 melanoma
[20] = tested on: 786-0 renal
[21] = tested on: CAKI-1 renal
[22] = tested on: MALME-3M melanoma
[23] = tested on: UACC-62 melanoma
[24] = tested on: A549 NSCLC
[25] = tested on: HT29 colon
[26] = tested on: HCC-2998 colon
[27] = tested on: NCI-H460 lung
[28] = tested on: MCF7 breast
[29] = tested on: K-562 leukemia

CN(C)c1nc(NCCNS(=O)(=O)c2ccc(C(=O)/C=C/c3ccc(C(F)(F)F)cc3)cc2)nc(N2CCOCC2)n1
GI50 [1]: 3.48 µM
TGI [1]: > 100 µM
GI50 [2]: 3.3 µM
TGI [2]: 11.1 µM
GI50 [3]: 15.3 µM
TGI [3]: 29.4 µM
GI50 [4]: 11.5 µM
TGI [4]: 23.7 µM
GI50 [5]: 14.7 µM
TGI [5]: 29.5 µM
GI50 [6]: 5.11 µM
TGI [6]: 18.4 µM
GI50 [7]: 16.3 µM
TGI [7]: 37.8 µM
GI50 [8]: 15.6 µM
TGI [8]: 29.3 µM
GI50 [9]: 5.5 µM
TGI [9]: 27.2 µM
GI50 [10]: 16.3 µM
TGI [10]: 30.4 µM
GI50 [11]: 6.31 µM
TGI [11]: > 100 µM
GI50 [12]: 8.11 µM
TGI [12]: 20.6 µM
GI50 [13]: 3.2 µM
TGI [13]: > 100 µM
GI50 [14]: 14.5 µM
TGI [14]: 27.7 µM
GI50 [15]: 1.77 µM
TGI [15]: 3.51 µM
GI50 [16]: 11.7 µM
TGI [16]: 24.2 µM
GI50 [17]: 8.95 µM
TGI [17]: 25.5 µM
GI50 [18]: 11.9 µM
TGI [18]: 24.2 µM
GI50 [19]: 9.83 µM
TGI [19]: 22.2 µM
GI50 [20]: 14.5 µM
TGI [20]: 28.2 µM
GI50 [21]: 11.4 µM
TGI [21]: 24.3 µM
GI50 [22]: 14.4 µM
TGI [22]: 27.6 µM
GI50 [23]: 11.2 µM
TGI [23]: 23.3 µM
GI50 [24]: 13.8 µM
TGI [24]: 29.3 µM
GI50 [25]: 2.06 µM
TGI [25]: 4.51 µM
GI50 [26]: 12.9 µM
TGI [26]: 26 µM
GI50 [27]: 16.1 µM
TGI [27]: 32.5 µM
GI50 [28]: 1.68 µM
TGI [28]: 3.34 µM
GI50 [29]: 3.21 µM

— PubChem BioAssay (NCI)
